Measured values reported in patent US7138361B2, “Herbicidal heterocycles” (E. I. du Pont de Nemours and Company, priority 2000, dated 2006).

What was measured:
Assay type in all cases: in vivo
[1] = tested on: bermudagrass (Cynodon dactylon); test: Test C preemergence; details: for Plant response rating (0 to 100 where 0 is no effect and 100 is complete control), Bermudagrass: visual evaluation after 12 to 14 days
How it was run: (§1)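 Formulation: non-phytotoxic solvent mix incl. surfactant. Pre: applied right after planting. Post: 1–4-leaf seedlings. Read: visual 0–100, day 12–14, greenhouse.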

kochia (Kochia scoparia) = test: Test C preemergence; details: for Plant response rating (0 to 100), Kochia: visual evaluation after 12 to 14 days
How it was run: as §1

Nightshade = test: Test C preemergence
[2] = tested on: common ragweed (Ambrosia elatior); test: Test C preemergence; details: for Plant response rating (0 to 100), Ragweed, Common: visual evaluation after 12 to 14 days
How it was run: as §1

soybean (Glycine max) = test: Test C preemergence; details: for Plant response rating (0 to 100), Soybean: visual evaluation after 12 to 14 days
How it was run: as §1

[3] = tested on: woolly cupgrass (Eriochloa villosa); test: Test C preemergence; details: for Plant response rating (0 to 100), Cupgrass, Woolly: visual evaluation after 12 to 14 days
How it was run: as §1

[4] = tested on: lambsquarters (Chenopodium album); test: Test C preemergence; details: for Plant response rating (0 to 100), Lambsquarters: visual evaluation after 12 to 14 days
How it was run: as §1

[5] = tested on: velvetleaf (Abutilon theophrasti); test: Test C preemergence; details: for Plant response rating (0 to 100), Velvetleaf: visual evaluation after 12 to 14 days
How it was run: as §1

[6] = tested on: pigweed (Amaranthus retroflexus); test: Test C preemergence; details: for Plant response rating (0 to 100), Pigweed: visual evaluation after 12 to 14 days
How it was run: as §1

Sunflower [7] = test: Test C preemergence; details: scale 0 to 100, 0 no effect, 100 complete control
[8] = tested on: Surinam grass (Brachiaria decumbens); test: Test C preemergence; details: for Plant response rating (0 to 100), Surinam grass: visual evaluation after 12 to 14 days
How it was run: as §1

[9] = tested on: johnsongrass (Sorghum halepense); test: Test C preemergence; details: for Plant response rating (0 to 100), Johnsongrass: visual evaluation after 12 to 14 days
How it was run: as §1

corn (Zea mays) = test: Test C preemergence; details: for Plant response rating (0 to 100), Corn: visual evaluation after 12 to 14 days
How it was run: as §1

[10] = tested on: giant foxtail (Setaria faberii); test: Test C preemergence; details: for Plant response rating (0 to 100), Foxtail, Giant: visual evaluation after 12 to 14 days
How it was run: as §1

[11] = tested on: cocklebur (Xanthium strumarium); test: Test C preemergence; details: for Plant response rating (0 to 100), Cocklebur: visual evaluation after 12 to 14 days
How it was run: as §1

[12] = tested on: lambsquarters (Chenopodium album); test: Test B postemergence
How it was run: (§2)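 Post-treatment, species sat 13–15 days under greenhouse conditions before visual scoring against controls, 0 (no effect) through 100 (complete control). Application preemergence to sown seeds or postemergence at 1- to 4-leaf stage, using a non-phytotoxic solvent/surfactant formulation.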

wild oat (Avena fatua) = test: Test B postemergence
How it was run: as §2

[13] = tested on: crabgrass (Digitaria sanguinalis); test: Test B postemergence
How it was run: as §2

[14] = tested on: cocklebur (Xanthium strumarium); test: Test B postemergence
How it was run: as §2

Sunflower [15] = test: Test C preemergence; details: visual evaluation after 12 to 14 days
[16] = Rate 125 g/ha, scale 0 to 100, 0 no effect, 100 complete control
[17] = preemergence, Rate 62 g/ha, scale 0 to 100
[18] = preemergence, Rate 250 g/ha, scale 0 to 100, 0 no effect, 100 complete control
[19] = Rate 500 g/ha, scale 0 to 100, 0 is no effect, 100 is complete control, 13 to 15 days
[20] = Rate 62 g/ha, scale 0 to 100, 0 no effect, 100 complete control
[21] = preemergence, Rate 31 g/ha, scale 0 to 100
[22] = preemergence, Rate 125 g/ha, scale 0 to 100, 0 no effect, 100 complete control
[23] = Rate 125 g/ha, scale 0 (no effect) to 100 (complete control), 13 to 15 days

Compound: CCCC(C)c1ccn(C2CCN(c3cccc(OCC)c3)C2=O)n1 (stereo not shown) [Compound 129]
- Plant response rating, Bermudagrass [1, 16]: 100
- Plant response rating, Bermudagrass [1, 17]: 100
- Plant response rating (0 to 100 where 0 is no effect and 100 is complete control), Bermudagrass ([1]; preemergence, Rate 500 g/ha): 100
- Plant response rating, Bermudagrass [1, 18]: 100
- Plant response rating, Kochia (kochia (Kochia scoparia); [16]): 100
- Plant response rating, Kochia (kochia (Kochia scoparia); [17]): 0
- Plant response rating (0 to 100), Kochia (kochia (Kochia scoparia); preemergence, Rate 500 g/ha): 100
- Plant response rating, Kochia (kochia (Kochia scoparia); [18]): 100
- Plant response rating, Nightshade (Nightshade; Rate 62 g/ha, scale 0 to 100): 0
- Plant response rating, Nightshade (Nightshade; Rate 125 g/ha; scale 0 to 100, 0 no effect, 100 complete control): 0
- Plant response rating, Nightshade (Nightshade; Rate 250 g/ha, scale 0 to 100, 0 no effect, 100 complete control): 10
- Plant response rating, Ragweed, Common [2, 16]: 0
- Plant response rating, Ragweed, Common [2, 17]: 0
- Plant response rating (0 to 100), Ragweed, Common ([2]; preemergence, Rate 500 g/ha): 100
- Plant response rating, Ragweed, Common [2, 18]: 100
- Plant response rating, Soybean (soybean (Glycine max); [16]): 20
- Plant response rating, Soybean (soybean (Glycine max); [17]): 10
- Plant response rating (0 to 100), Soybean (soybean (Glycine max); preemergence, Rate 500 g/ha): 20
- Plant response rating, Soybean (soybean (Glycine max); [18]): 20
- Plant response rating, Cupgrass, Woolly [3, 16]: 100
- Plant response rating, Cupgrass, Woolly [3, 17]: 90
- Plant response rating (0 to 100), Cupgrass, Woolly ([3]; preemergence, Rate 500 g/ha): 100
- Plant response rating, Cupgrass, Woolly [3, 18]: 100
- Plant response rating, Lambsquarters [4, 16]: 100
- Plant response rating, Lambsquarters [4, 17]: 100
- Plant response rating (0 to 100), Lambsquarters ([4]; preemergence, Rate 500 g/ha): 100
- Plant response rating, Lambsquarters [4, 18]: 100
- Plant response rating, Velvetleaf [5, 16]: 0
- Plant response rating, Velvetleaf [5, 17]: 0
- Plant response rating (0 to 100), Velvetleaf ([5]; preemergence, Rate 500 g/ha): 10
- Plant response rating, Velvetleaf [5, 18]: 0
- Plant response rating, Pigweed [6, 16]: 100
- Plant response rating, Pigweed [6, 17]: 20
- Plant response rating (0 to 100), Pigweed ([6]; preemergence, Rate 500 g/ha): 100
- Plant response rating, Pigweed [6, 18]: 60
- Plant response rating, Sunflower (Sunflower [7]; Rate 125 g/ha): 0
- Plant response rating, Surinam grass [8, 16]: 80
- Plant response rating, Surinam grass [8, 17]: 80
- Plant response rating (0 to 100), Surinam grass ([8]; preemergence, Rate 500 g/ha): 100
- Plant response rating, Surinam grass [8, 18]: 90
- Plant response rating, Johnsongrass [9, 16]: 70
- Plant response rating, Johnsongrass [9, 17]: 20
- Plant response rating (0 to 100), Johnsongrass ([9]; preemergence, Rate 500 g/ha): 100
- Plant response rating, Johnsongrass [9, 18]: 100
- Plant response rating, Corn (corn (Zea mays); [16]): 20
- Plant response rating, Corn (corn (Zea mays); [17]): 0
- Plant response rating (0 to 100), Corn (corn (Zea mays); preemergence, Rate 500 g/ha): 30
- Plant response rating, Corn (corn (Zea mays); [18]): 30
- Plant response rating, Foxtail, Giant [10, 16]: 60
- Plant response rating, Foxtail, Giant [10, 17]: 20
- Plant response rating (0 to 100), Foxtail, Giant ([10]; preemergence, Rate 500 g/ha): 100
- Plant response rating, Foxtail, Giant [10, 18]: 80
- Plant response rating, Cocklebur [11, 16]: 0
- Plant response rating, Cocklebur [11, 17]: 0
- Plant response rating (0 to 100), Cocklebur ([11]; preemergence, Rate 500 g/ha): 0
- Plant response rating, Cocklebur [11, 18]: 0
- Plant response rating, Lambsquarters [12, 16]: 100
- Plant response rating, Wild Oat (wild oat (Avena fatua); [16]): 0
- Plant response rating, Crabgrass [13, 16]: 0
- Plant response rating, Cocklebur [14, 16]: 0
- Plant response rating, Cocklebur [14, 19]: 30
- Plant response rating (0 to 100), Sunflower (Sunflower [15]; Rate 500 g/ha): 10

Compound: CC(C)(C)c1ccn(C2CCN(c3ccc(Cl)c(Cl)c3)C2=O)n1 (stereo not shown) [Compound 34]
- Plant response rating, Bermudagrass [1, 20]: 80
- Plant response rating, Bermudagrass [1, 21]: 0
- Plant response rating (0 to 100 where 0 is no effect and 100 is complete control), Bermudagrass ([1]; preemergence, Rate 250 g/ha): 100
- Plant response rating, Bermudagrass [1, 22]: 90
- Plant response rating, Kochia (kochia (Kochia scoparia); [20]): 100
- Plant response rating, Kochia (kochia (Kochia scoparia); [21]): 100
- Plant response rating (0 to 100), Kochia (kochia (Kochia scoparia); preemergence, Rate 250 g/ha): 100
- Plant response rating, Kochia (kochia (Kochia scoparia); [22]): 100
- Plant response rating, Nightshade (Nightshade; Rate 31 g/ha, scale 0 to 100): 0
- Plant response rating, Nightshade (Nightshade; Rate 62 g/ha; scale 0 to 100, 0 no effect, 100 complete control): 0
- Plant response rating, Nightshade (Nightshade; [16]): 0
- Plant response rating, Ragweed, Common [2, 20]: 0
- Plant response rating, Ragweed, Common [2, 21]: 0
- Plant response rating (0 to 100), Ragweed, Common ([2]; preemergence, Rate 250 g/ha): 0
- Plant response rating, Ragweed, Common [2, 22]: 0
- Plant response rating, Soybean (soybean (Glycine max); [20]): 0
- Plant response rating, Soybean (soybean (Glycine max); [21]): 0
- Plant response rating (0 to 100), Soybean (soybean (Glycine max); preemergence, Rate 250 g/ha): 0
- Plant response rating, Soybean (soybean (Glycine max); [22]): 0
- Plant response rating, Cupgrass, Woolly [3, 20]: 20
- Plant response rating, Cupgrass, Woolly [3, 21]: 0
- Plant response rating (0 to 100), Cupgrass, Woolly ([3]; preemergence, Rate 250 g/ha): 80
- Plant response rating, Cupgrass, Woolly [3, 22]: 20
- Plant response rating, Lambsquarters [4, 20]: 90
- Plant response rating, Lambsquarters [4, 21]: 90
- Plant response rating (0 to 100), Lambsquarters ([4]; preemergence, Rate 250 g/ha): 100
- Plant response rating, Lambsquarters [4, 22]: 100
- Plant response rating, Velvetleaf [5, 20]: 0
- Plant response rating, Velvetleaf [5, 21]: 0
- Plant response rating (0 to 100), Velvetleaf ([5]; preemergence, Rate 250 g/ha): 0
- Plant response rating, Velvetleaf [5, 22]: 0
- Plant response rating, Pigweed [6, 20]: 100
- Plant response rating, Pigweed [6, 21]: 0
- Plant response rating (0 to 100), Pigweed ([6]; preemergence, Rate 250 g/ha): 40
- Plant response rating, Pigweed [6, 22]: 100
- Plant response rating, Sunflower (Sunflower [7]; Rate 62 g/ha): 0
- Plant response rating, Surinam grass [8, 20]: 0
- Plant response rating, Surinam grass [8, 21]: 0
- Plant response rating (0 to 100), Surinam grass ([8]; preemergence, Rate 250 g/ha): 0
- Plant response rating, Surinam grass [8, 22]: 0
- Plant response rating, Johnsongrass [9, 20]: 0
- Plant response rating, Johnsongrass [9, 21]: 0
- Plant response rating (0 to 100), Johnsongrass ([9]; preemergence, Rate 250 g/ha): 0
- Plant response rating, Johnsongrass [9, 22]: 0
- Plant response rating, Corn (corn (Zea mays); [20]): 0
- Plant response rating, Corn (corn (Zea mays); [21]): 0
- Plant response rating (0 to 100), Corn (corn (Zea mays); preemergence, Rate 250 g/ha): 0
- Plant response rating, Corn (corn (Zea mays); [22]): 0
- Plant response rating, Foxtail, Giant [10, 20]: 30
- Plant response rating, Foxtail, Giant [10, 21]: 30
- Plant response rating (0 to 100), Foxtail, Giant ([10]; preemergence, Rate 250 g/ha): 50
- Plant response rating, Foxtail, Giant [10, 22]: 0
- Plant response rating, Cocklebur [11, 20]: 0
- Plant response rating, Cocklebur [11, 21]: 0
- Plant response rating (0 to 100), Cocklebur ([11]; preemergence, Rate 250 g/ha): 0
- Plant response rating, Cocklebur [11, 22]: 0
- Plant response rating, Lambsquarters [12, 23]: 90
- Plant response rating, Lambsquarters [12, 19]: 100
- Plant response rating, Wild Oat (wild oat (Avena fatua); [23]): 0
- Plant response rating, Wild Oat (wild oat (Avena fatua); [19]): 0
- Plant response rating, Crabgrass [13, 23]: 0
- Plant response rating, Crabgrass [13, 19]: 0
- Plant response rating, Cocklebur [14, 23]: 0
- Plant response rating, Cocklebur [14, 19]: 0
- Plant response rating (0 to 100), Sunflower (Sunflower [15]; Rate 250 g/ha): 0
